row,melting point,Compound
1,100 to 102 °C,CC(Cl)c1ccc(-c2ccc(Cl)cc2)cc1 (stereo not drawn)
2,87 to 89 °C,Cc1cccc2ncn(C(C)C(O)(Cn3cncn3)c3ccc(F)cc3F)c(=O)c12 (stereo not drawn)
3,171 °C,CCOc1ccc2c(c1)n(-c1ccccn1)c(=O)n2S(=O)(=O)c1ccc(NC(=O)N(CC)CC)cc1OC
4,78 to 79 °C,COC(=O)CCCC(=O)c1cc2c(c(S(=O)(=O)Cl)c1)OCC2
5,184 to 185 °C,O=C1CN(Cc2cnc(-c3ccc(C(CC4CCOCC4)c4ccc(S(=O)(=O)C5CC5)cc4)[nH]3)s2)C(=O)N1 (stereo not drawn)
6,113 to 115 °C,COC(=O)Cc1ccc(CN2CCN(C(c3ccccc3)c3ccc(Cl)cc3)CC2)cc1 (stereo not drawn)
7,79 to 81 °C,CN(C)C(=S)SC(C[N+](=O)[O-])c1ccc(Br)cc1 (stereo not drawn)
8,272 to 274 °C,CN1CC(=O)Nc2cccnc2C1=O
9,113 to 116 °C,CCOP(=O)(CC(=O)Nc1cc2c(Nc3ccc(Cl)c(Br)c3)ncnc2cn1)OCC
10,67 to 69 °C,CCC(=O)C(Cc1cc(C#N)cc(C#N)c1)C(=O)CC
11,112 °C,N#Cc1ccc(Oc2ccccc2Oc2ccc(C#N)cc2)cc1
12,180 to 185 °C,CCOC(=O)c1c(N2CCN(C)CC2)c2cnc(-c3ccccc3)nc2n(CC)c1=O
13,281 to 285 °C,c1ccc2cc(-c3cc4nccnc4[nH]3)ncc2c1
14,86 to 89 °C,Cc1nn(-c2c(Cl)cc(C(F)(F)F)cc2Cl)nc1S
15,167 to 169 °C,O=C(NCCCn1ccnc1-c1ccccc1)c1cc2ccccc2[nH]1
16,145 to 150 °C,Oc1ccc(-c2ccc(-c3ccc(O)cc3)c(-c3ccc(OCCN4CCCC4)cc3)n2)cc1
17,297 to 299 °C,CN1C(=O)C2(COc3cc4c(cc32)OCCO4)c2c(C(=O)O)cccc21 (stereo not drawn)
18,78 to 79 °C,COc1ccc(C#N)c(ON=C(C)C)c1
19,166 to 167 °C,O=c1c(CCCc2ccco2)cc2cccnc2n1-c1cccc([N+](=O)[O-])c1
20,89 to 90 °C,CCNC(=C[N+](=O)[O-])NCCSCc1csc(CN(C)C)n1
21,155 to 157 °C,CCc1c(N)c(C(N)=O)nn1C1CN(CC)C1
22,144 to 146 °C,CC(=O)SCCC(=O)N1C(C(=O)O)CC(=O)N1c1ccccc1 (stereo not drawn)
23,111 to 113 °C,COC(=O)c1ccc(C(=O)c2ccccc2)[nH]1

# The remaining lines, values behind:
row,Compound,melting point
1,O=C(OC1CCCCCC1)c1ncn2c1[C@@H]1CCCN1C(=O)c1c(Cl)cccc1-2,179 to 180 °C
2,Cc1cc2c(cc1Cl)N(C(=O)CN1CCN(c3ccccc3)CC1)c1ccccc1N(C)S2(=O)=O,194 to 196 °C
3,Cc1ccc(-n2nc(C(C)(C)C)cc2NC(=O)Nc2ccc(-c3cnc4c(c3)NC(=O)CO4)c3ccccc23)cc1,> 200 °C
4,CCOC(=O)CSCc1cc(-c2nn(C)c(C(F)(F)F)c2Cl)c(F)cc1Cl,63 °C
5,CC(C)(CO)NC(=O)c1nn(-c2ccc(Cl)cc2)c2c1C1CCC2C1 (stereo not drawn),167 to 169 °C
6,O=C1C(=C2CCCN2Cc2ccccc2)c2ccccc2N1c1cccc(Cl)c1,72 to 75 °C
7,CCCCOc1ccc(NC(=O)c2cnc(C(=O)NCC(=O)OCC)c(Cl)c2)cc1,177 to 179 °C
8,COc1cccc(C=N[C@H](C)c2ccc([N+](=O)[O-])cc2)c1O,88 to 90 °C
9,COc1c(C)cc2ccccc2c1C(CC(=O)O)C(=O)O (stereo not drawn),159 °C
10,NC1=NC(Cl)N(c2c([N+](=O)[O-])cc([N+](=O)[O-])cc2C(F)(F)F)C(Cl)=C1 (stereo not drawn),198 to 200 °C
11,CCOC(=O)c1sc(SC)c2c1CCc1sc(C)nc1-2,143 to 144 °C
12,CCc1ccc(C(=O)N[C@H](Cc2ccccc2)C(=O)O)cc1,166 °C
13,CSc1ncccc1C(=O)CC(=O)C1CC1,87 to 89 °C
14,O=C(CCc1ccncc1)c1c(O)c2cccnc2n(-c2cccc([N+](=O)[O-])c2)c1=O,174 to 177 °C
15,Cc1cccc(NC(=O)N(C)Cc2cccc3c2CN(C2CCC(=O)NC2=O)C3=O)c1 (stereo not drawn),208 to 210 °C

# Reference: a melting point compilation (Tetko et al.; mined from patent text by program, amines drawn as free bases though some values may be those of a salt)
